Test results: patent publication US9809562B2, “NAT10 modulators for treating or preventing laminopathies, aging and cancer” (CAMBRIDGE ENTERPRISE LIMITED, priority 2014, dated 2017)
Counter-ions that a name gives are not always drawn.

Assays:
SUN1 in siLMNA cells = experiment: SUN1 expression and localization in siLMNA cells; type: cell-based, human
Procedure: Cells were washed with PBS and fixed for 20 minutes with 2% PFA in PBS. Cells were permeabilised for 5 minutes with PBS/0.2% Triton X-100, and blocked with PBS/0.2% Tween 20 (PBS-T) containing 5% BSA. Coverslips were incubated for 1 hour with primary antibodies and for 30 minutes with appropriate secondary antibodies coupled to Alexa Fluor 488 or 594 fluorophores (Life Technologies), before being incubated with 2 μg/ml DAPI. Pictures were acquired with a FluoView 1000 confocal microscope (Olympus). For high resolution imaging, z-stacks were acquired with a Deltavision PersonalDV (Applied Precision, 1024×1024 CoolSNAP HQ2 camera, z-stack of 0.2 μm interval) or with a Deltavision OMX V3 in conventional mode (Applied Precision, 512×512 Cascade II cameras (Photometrics), z-stack of 0.125 μm interval) both equipped with a 100× UPlanSApo/1.40 oil objective (Olympus) and controlled with SoftWoRx software (Applied Precision). Deconvolutions were then performed with SoftWoRx (Applied Precision) in conservative mode. The different channels were acquired sequentially.

[1] = system: siLMNA cells and HGPS cells; experiment: Microtubules regrowth assay; type: cell-based, human; conditions: t=15 minutes after cold depolymerization, 5 to 10 μM Remodelin 16 hours
Procedure: 48 hours after siRNA transfections, microtubules were depolymerized by cold treatment at 4° C. for 1 hour in cells pre-treated or not with 5 to 10 μM Remodelin for 16 hours. Cold medium was replaced by pre-warmed medium and cells were incubated at 37° C. for 5 or 15 minutes to allow microtubules nucleation and anchorage respectively. Cells were fixed in PFA and stained with anti α-Tubulin antibody as described in the immunofluorescence procedure.

[2] = system: GFP-H2B expressing U2OS cells transfected with siLMNA; experiment: Live imaging of GFP-H2B cells; type: cell-based, human; conditions: Compound 2 at 50 μM, independently of mitosis
Procedure: U2OS cells were transfected with siLMNA for 48 hours before addition of (Compound 2) at 50 μM. Pictures were acquired every 15 minutes for 16 hours in z-stack of 0.2 μm interval with a Deltavision PersonalDV (Applied Precision, 512×512 CoolSNAP HQ2 camera) equipped with a 100× UPlanSApo/1.40 oil objective (Olympus) and controlled with SoftWoRx software (Applied Precision). Movies were then assembled from pictures with ImageJ software.

[3] = target: T1, NAT10 purified from HEK293 cells (Homo sapiens, UniProt Q9H0A0); experiment: Circular dichroism spectroscopy of purified NAT10; type: binding; conditions: titration, 10 μM FLAG-NAT10, concentration-dependent
T1 construct: made in house; host or cells: HEK293 (transient transfection, anti-FLAG immunopurification, elution with triple-Flag peptide)
T1 sequence (Q9H0A0 1-1025): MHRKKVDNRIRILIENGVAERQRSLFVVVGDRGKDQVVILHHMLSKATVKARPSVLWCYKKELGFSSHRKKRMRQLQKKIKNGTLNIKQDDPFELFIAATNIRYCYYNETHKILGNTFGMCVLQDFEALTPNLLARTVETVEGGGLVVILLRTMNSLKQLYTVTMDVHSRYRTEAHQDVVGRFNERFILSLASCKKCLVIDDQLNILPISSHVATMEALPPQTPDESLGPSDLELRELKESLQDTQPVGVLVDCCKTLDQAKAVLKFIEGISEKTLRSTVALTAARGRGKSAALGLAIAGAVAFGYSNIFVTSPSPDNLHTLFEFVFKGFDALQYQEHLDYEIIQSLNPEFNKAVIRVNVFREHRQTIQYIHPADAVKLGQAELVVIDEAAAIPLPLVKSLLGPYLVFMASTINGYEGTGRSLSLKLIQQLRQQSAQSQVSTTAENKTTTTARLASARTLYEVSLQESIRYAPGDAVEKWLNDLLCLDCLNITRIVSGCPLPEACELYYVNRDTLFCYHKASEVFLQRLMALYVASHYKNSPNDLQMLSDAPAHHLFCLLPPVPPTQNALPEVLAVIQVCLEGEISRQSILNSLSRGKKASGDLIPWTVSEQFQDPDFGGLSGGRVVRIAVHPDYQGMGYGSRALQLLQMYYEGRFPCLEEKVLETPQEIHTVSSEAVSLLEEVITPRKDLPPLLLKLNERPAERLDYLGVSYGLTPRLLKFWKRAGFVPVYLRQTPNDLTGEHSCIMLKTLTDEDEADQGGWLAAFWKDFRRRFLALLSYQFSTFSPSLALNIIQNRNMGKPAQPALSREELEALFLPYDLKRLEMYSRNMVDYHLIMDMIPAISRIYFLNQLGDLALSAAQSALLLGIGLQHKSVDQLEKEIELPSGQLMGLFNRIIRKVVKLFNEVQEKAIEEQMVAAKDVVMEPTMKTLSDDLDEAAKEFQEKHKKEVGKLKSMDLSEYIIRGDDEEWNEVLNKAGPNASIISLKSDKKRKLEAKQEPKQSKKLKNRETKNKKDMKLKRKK
Procedure: HEK293 cells were transiently transfected with NAT10 constructs and harvested after 48 hours in PBS. Cells were lysed for 5 minutes at room temperature in IP lysis buffer (20 mM Tris pH 7.5, 40 mM NaCl, 2 mM MgCl2, 0.5% NP-40) freshly supplemented with 50 U/ml benzonase and EDTA-free protease inhibitor cocktail (Roche). After this initial lysis step, NaCl concentration was adjusted to 450 mM and samples were incubated at 4° C. with rotation. Lysates were clarified by centrifugation (13,200 rpm, 20 minutes at 4° C.), and after recovery NaCl concentration was equilibrated to 150 mM. Lysates were used for immunoprecipitation reaction in IP buffer (25 mM Tris pH 7.5, 150 mM NaCl, 1.5 mM DTT, 10% glycerol, 0.5% NP-40) supplemented with protease inhibitors. Target proteins were captured with anti-FLAG antibody (M2, Sigma-Aldrich) coupled to protein A/G-Dynabeads (Life Sciences). Complexes were washed with IP buffer containing incrementally increasing amounts of NaCl (250 mM, 500 mM, and 1M). Following this, the immuno-complexes were washed in TBS containing gradually decreasing amounts on NaCl (1M, 500 mM, 250 mM, and 150 mM). […]
CD experiments were performed using a Chirascan Circular Dichroism Spectrophotometer (Applied Photophysics, UK). […] CD scans were recorded at 25° C. over the wavelength range of 180 to 350 nm with a 1 second response time, 1 nm pitch and 1.5-nm bandwidth. […]

[4] = In vivo toxicity, body weight change; conditions: mice, oral daily dose for 14 days

N#Cc1ccc(-c2csc(NN=C3CCCC3)n2)cc1 [Compound 1, 4-(4-Cyanophenyl)-2-(2-cyclopentylidenehydrazinyl)thiazole]
expression and localization of SUN1 (SUN1 in siLMNA cells): does not detectably affect the expression and localization of SUN1 | anchorage of microtubules to centrosomes [1]: anchorage of microtubules to centrosomes was clearly affected

Clc1ccc(-c2csc(NN=C3CCCC3)n2)cc1 [Compound 2, 4-(4-Chlorophenyl)-2-(2-cyclopentylidenehydrazinyl)thiazole Hydrochloride Salt]
time to complete nuclear shape rescue [2]: ≤ 12 h | NAT10 conformation, absolute molar ellipticity at 210 nm [3]: clear increase in the absolute molar ellipticity | tolerability (body weight change) [4]: well tolerated orally, up to high doses of 400 mg/kg/day, without significant decrease of body weight
